Tests used:
LDHA = LDHA (Homo sapiens (Human), UniProt P00338); test: Coupled diaphorase assay, LDHA; format: biochemical; conditions: lactate to pyruvate direction, 4-7 nM LDHA
Text: (§1) The inhibitory properties of the compounds were investigated using a coupled enzyme assay that links the lactate dehydrogenase (LDH) reaction to the production of fluorescent resorutin by diaphorase.
(§2) Human lactate dehydrogenases (LDH) catalyze the reversible interconversion between pyruvate and lactate. LDH is capable of catalyzing both the forward (pyruvate to lactate) and the reverse (lactate to pyruvate) reaction, using either NADH or NAD^+ as a cofactor. The reaction proceeds in either direction dependent on various factors, such as substrate availability, the presence of necessary cofactors, temperature and pH. Different isoforms (LDH A, B, and C) of the enzyme favor different reaction directions—LDHA prefers the conversion from pyruvate to lactate, whereas LDHB preferentially oxidizes lactate to pyruvate.
The coupled assay relies on the oxidation of NAD^+ to NADH throughout the conversion of lactate to pyruvate by LDH (isoforms A, B and C). The produced NADH serves as cofactor in the diaphorase reaction, which reduces non-fluorescent resazurin to fluorescent resorufin. Therefore, the assay indirectly monitors the rate of pyruvate production. Although the consumption of NADH can be directly monitored due to the intrinsic fluorescence of the molecule (excitation: 340 nm, emission: 460 nm) there are problems linked to the direct readout method. […] Shifting the assay to longer wavelengths by coupling the LDH reaction to the conversion of resazurin to fluorescent resorufin by diaphorase reduces this compound interference. The assay direction was thus chosen to provide a robust and reliable assay. […]
Compounds were tested in duplicates using 2-fold, 3-fold or 4-fold serial dilutions including 11 individual concentrations, starting from 5000 μM to 30 μM. […] The controls allowed for the calculation of the percentage inhibition for each data point. […] Enzyme solution leading to final concentrations of 4-7 nM LDHA or 6 nM LDHB, as well as 0.2 U/ml diaphorase in the reaction well was dispensed into 384-well plates (Greiner bio-one) using a CyBi®-SELMA robotic pipettor. Compound dilutions and the enzyme were incubated for at least 20 min at room temperature. […] The reaction was quenched by the addition of a stop solution (final concentrations: 20 mM EDTA, 400 mM NaCl, 40 mM pyruvate). Fluorescence was read out after 5 min of incubation at an excitation wavelength of 560 nm and an emission wavelength of 590 nm on a Perkin Elmer Victor X plate reader. […]
(§3) Fluorescence data was normalized to DMSO and inhibition controls resulting in percentage inhibition for every compound concentration. Dose response curves were fitted in KaleidaGraph (www.synergy.com) or Dotmatics software package (www.dotmatics.com) using a standard 4-parameter fit (Levenberg-Marquardt fitting procedure), resulting in IC50 values for the test compounds.

LDHB = LDHB (Homo sapiens (Human), UniProt P07195); test: Coupled diaphorase assay, LDHB; format: biochemical; conditions: lactate to pyruvate direction, 6 nM LDHB
LDHB, sequence (P07195 whole entry): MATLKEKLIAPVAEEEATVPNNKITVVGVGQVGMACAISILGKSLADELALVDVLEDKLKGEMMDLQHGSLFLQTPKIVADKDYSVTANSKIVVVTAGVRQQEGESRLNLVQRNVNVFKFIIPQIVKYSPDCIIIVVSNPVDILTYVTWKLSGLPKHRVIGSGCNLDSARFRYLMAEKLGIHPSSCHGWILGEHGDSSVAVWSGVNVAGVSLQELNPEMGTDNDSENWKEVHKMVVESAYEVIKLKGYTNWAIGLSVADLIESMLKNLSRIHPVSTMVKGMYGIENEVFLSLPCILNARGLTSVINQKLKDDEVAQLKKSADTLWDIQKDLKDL
Text: as §1, §2
The coupled assay relies on the oxidation of NAD^+ to NADH throughout the conversion of lactate to pyruvate by LDH (isoforms A, B and C). The produced NADH serves as cofactor in the diaphorase reaction, which reduces non-fluorescent resazurin to fluorescent resorufin. Therefore, the assay indirectly monitors the rate of pyruvate production. Although the consumption of NADH can be directly monitored due to the intrinsic fluorescence of the molecule (excitation: 340 nm, emission: 460 nm) there are problems linked to the direct readout method. […] Shifting the assay to longer wavelengths by coupling the LDH reaction to the conversion of resazurin to fluorescent resorufin by diaphorase reduces this compound interference. The assay direction was thus chosen to provide a robust and reliable assay.
Applying the LDHA reaction in the preferred direction for the conversion of pyruvate to lactate under oxidation of NADH to NAD^+ would necessitate running the LDHA reaction to about 80% completion and adding the diaphorase assay reagents afterwards in order to avoid enzyme competition for NADH.
The controls allowed for the calculation of the percentage inhibition for each data point. […] Enzyme solution leading to final concentrations of 4-7 nM LDHA or 6 nM LDHB, as well as 0.2 U/ml diaphorase in the reaction well was dispensed into 384-well plates (Greiner bio-one) using a CyBi®-SELMA robotic pipettor. Compound dilutions and the enzyme were incubated for at least 20 min at room temperature. […] The reaction was quenched by the addition of a stop solution (final concentrations: 20 mM EDTA, 400 mM NaCl, 40 mM pyruvate). Fluorescence was read out after 5 min of incubation at an excitation wavelength of 560 nm and an emission wavelength of 590 nm on a Perkin Elmer Victor X plate reader. […]
as §3

Row | IC50 (LDHA) [µM] | IC50 (LDHB) [µM] | SMILES
1 | 10 to 50 | – | COCCOC(=O)OC1=C(Sc2cc(Cl)ccc2Cl)C(=O)NC(c2ccc(N3CCOCC3)cc2)(c2ccsc2)C1 (racemic) [Example 17, 5-((2,5-dichlorophenyl)thio)-2-(4-morpholinophenyl)-6-oxo-2-(thiophen-3-yl)-1,2,3,6-tetrahydropyridin-4-yl (2-methoxyethyl) carbonate]
2 | 0.5 to 10 | – | O=C1CC(c2ccc(N3CCOCC3)cc2)(c2ccsc2)NC(=O)C1Sc1cc(Cl)ccc1Cl (single isomer, unassigned) [Example 10 Enantiomer 1]
3 | 10 to 50 | – | O=C1CC(c2ccc(N3CCOCC3)cc2)(c2ccsc2)NC(=O)C1Sc1cc(Cl)ccc1Cl (single isomer, unassigned) [Example 10 Enantiomer 2]
4 | 10 to 50 | – | COCCOC(=O)OC1=C(Sc2cc(Cl)ccc2Cl)C(=O)NC(c2ccc(N3CCOCC3)cc2)(c2ccsc2)C1 (single isomer, unassigned) [Example 17 Enantiomer 1]
5 | 0.5 to 10 | – | COCCOC(=O)OC1=C(Sc2cc(Cl)ccc2Cl)C(=O)NC(c2ccc(N3CCOCC3)cc2)(c2ccsc2)C1 (single isomer, unassigned) [Example 17 Enantiomer 2]
6 | 10 to 50 | > 100 | O=C1CC(c2ccsc2)(c2cccc(OCC3CCCC3)n2)NC(=O)C1Sc1ccc(Cl)cc1Cl (centres unmarked) [Example 1, 6-[6-(cyclopentylmethoxy)pyridin-2-yl]-3-[(2,4-dichlorophenyl)sulfanyl]-6-(thiophen-3-yl)piperidine-2,4-dione]
7 | 10 to 50 | > 100 | O=C1CC(c2ccsc2)(c2cccc(Br)n2)NC(=O)C1Sc1ccc(F)cc1Cl (centres unmarked) [Example 2, 6-(6-bromopyridin-2-yl)-3-[(2-chloro-4-fluorophenyl)sulfanyl]-6-(thiophen-3-yl)piperidine-2,4-dione]
8 | 10 to 50 | > 100 | CCOc1cccc(C2(c3ccsc3)CC(=O)C(Sc3ccc(F)cc3Cl)C(=O)N2)n1 (centres unmarked) [Example 4, 3-((2-chloro-4-fluorophenyl)thio)-6-(6-ethoxypyridin-2-yl)-6-(thiophen-3-yl)piperidine-2,4-dione]
9 | > 100 | > 100 | O=C1CC(c2ccsc2)(c2cccc(Br)n2)NC(=O)C1Sc1cccc(Cl)c1Cl (centres unmarked) [Example 6, 6-(6-bromopyridin-2-yl)-3-[(2,3-dichlorophenyl)sulfanyl]-6-(thiophen-3-yl)piperidine-2,4-dione]
10 | 10 to 50 | > 100 | O=C1CC(c2ccsc2)(c2cccc(OCC3CCCC3)n2)NC(=O)C1Sc1cccc(Cl)c1Cl (centres unmarked) [Example 7, 6-[6-(cyclopentylmethoxy)pyridin-2-yl]-3-[(2,3-dichlorophenyl)sulfanyl]-6-(thiophen-3-yl)piperidine-2,4-dione]
11 | 0.1 to 0.5 | 0.1 to 0.5 | O=C1CC(c2ccc(N3CCOCC3)cc2)(c2ccsc2)NC(=O)C1Sc1ccc(F)cc1Cl (centres unmarked) [Example 8, 3-((2-chloro-4-fluorophenyl)thio)-6-(4-morpholinophenyl)-6-(thiophen-3-yl)piperidine-2,4-dione]
12 | 0.5 to 10 | > 100 | O=C1CC(c2ccc(N3CCOCC3)cc2)(c2ccsc2)NC(=O)C1Sc1cccc(Cl)c1Cl (centres unmarked) [Example 9, 3-((2,3-dichlorophenyl)thio)-6-(4-morpholinophenyl)-6-(thiophen-3-yl)piperidine-2,4-dione]
13 | > 100 | > 100 | CCOC(=O)OC1=C(Sc2ccc(F)cc2Cl)C(=O)NC(c2ccsc2)(c2cccc(OCC3CCCC3)n2)C1 (centres unmarked) [Example 11, 5-[(2-chloro-4-fluorophenyl)sulfanyl]-2-[6-(cyclopentylmethoxy)pyridin-2-yl]-6-oxo-2-(thiophen-3-yl)-1,2,3,6-tetrahydropyridin-4-yl ethyl carbonate]
14 | > 100 | > 100 | COC(=O)OC1=C(Sc2cccc(Cl)c2Cl)C(=O)NC(c2ccsc2)(c2cccc(OCC3CCCC3)n2)C1 (centres unmarked) [Example 12, 6′-(cyclopentylmethoxy)-5-((2,3-dichlorophenyl)thio)-6-oxo-2-(thiophen-3-yl)-1,2,3,6-tetrahydro-[2,2′-bipyridin]-4-yl methyl carbonate]
15 | > 100 | – | CCCCCCCCCCOC(=O)OC1=C(Sc2cc(Cl)ccc2Cl)C(=O)NC(c2ccsc2)(c2cccc(OCC3CCCC3)n2)C1 (centres unmarked) [Example 16, 6′-(cyclopentylmethoxy)-5-((2,5-dichlorophenyl)thio)-6-oxo-2-(thiophen-3-yl)-1,2,3,6-tetrahydro-[2,2′-bipyridin]-4-yl decyl carbonate]
16 | 0.5 to 10 | – | O=C1CC(c2cncnc2)(c2ccsc2)OC(=O)C1Sc1ccccc1Cl (centres unmarked) [Example 19, 3-((2-chlorophenyl)thio)-6-(pyrimidin-5-yl)-6-(thiophen-3-yl)dihydro-2H-pyran-2,4(3H)-dione]
17 | 10 to 50 | – | COC(=O)OC1=C(Sc2ccccc2Cl)C(=O)OC(c2ccsc2)(c2ccc(Br)cn2)C1 (centres unmarked) [Example 21, 2-(5-bromopyridin-2-yl)-5-((2-chlorophenyl)thio)-6-oxo-2-(thiophen-3-yl)-3,6-dihydro-2H-pyran-4-yl methyl carbonate]
18 | 50 to 100 | – | CC(C)COC(=O)OC1=C(Sc2cc(Cl)ccc2Cl)C(=O)NC(c2ccc(N3CCOCC3)cc2)(c2ccsc2)C1 (centres unmarked) [Example 26, 5-((2,5-dichlorophenyl)thio)-2-(4-morpholinophenyl)-6-oxo-2-(thiophen-3-yl)-1,2,3,6-tetrahydropyridin-4-yl isobutyl carbonate]
19 | 10 to 50 | – | CC(=O)OC1=C(Sc2cc(Cl)ccc2Cl)C(=O)NC(c2ccc(N3CCOCC3)cc2)(c2ccsc2)C1 (centres unmarked) [Example 27, 5-((2,5-dichlorophenyl)thio)-2-(4-morpholinophenyl)-6-oxo-2-(thiophen-3-yl)-1,2,3,6-tetrahydropyridin-4-yl acetate]
20 | 10 to 50 | – | CC(C)(C)C(=O)OC1=C(Sc2cc(Cl)ccc2Cl)C(=O)NC(c2ccc(N3CCOCC3)cc2)(c2ccsc2)C1 (centres unmarked) [Example 28, 5-((2,5-dichlorophenyl)thio)-2-(4-morpholinophenyl)-6-oxo-2-(thiophen-3-yl)-1,2,3,6-tetrahydropyridin-4-yl pivalate]
21 | 0.5 to 10 | – | O=C1NC(c2ccc(N3CCOCC3)cc2)(c2ccsc2)CC(OC(=O)c2ccncc2)=C1Sc1cc(Cl)ccc1Cl (centres unmarked) [Example 31, 5-((2,5-dichlorophenyl)thio)-2-(4-morpholinophenyl)-6-oxo-2-(thiophen-3-yl)-1,2,3,6-tetrahydropyridin-4-yl isonicotinate]
22 | > 100 | – | COCCOC(=O)OC1=C(Sc2cc(Cl)ccc2Cl)C(=O)NC(c2ccsc2)(c2cccc(OCC3CCCC3)n2)C1 (centres unmarked) [Example 34, 6′-(cyclopentylmethoxy)-5-((2,5-dichlorophenyl)thio)-6-oxo-2-(thiophen-3-yl)-1,2,3,6-tetrahydro-[2,2′-bipyridin]-4-yl (2-methoxyethyl) carbonate]
23 | 10 to 50 | – | COCCOC(=O)OC1=C(Sc2ccccc2Cl)C(=O)OC(c2cnc(N3CCOCC3)nc2)(c2ccsc2)C1 (centres unmarked) [Example 35, 5-((2-chlorophenyl)thio)-2-(2-morpholinopyrimidin-5-yl)-6-oxo-2-(thiophen-3-yl)-3,6-dihydro-2H-pyran-4-yl (2-methoxyethyl) carbonate]

Reference: patent US11142520B2, “LDHA activity inhibitors” (ARCTIC PHARMA AS, priority 2017, dated 2021)
